From patent US11566222B2, “γδ T cell expansion procedure” (KING'S COLLEGE LONDON, priority 2014, dated 2023)

Key:
[1] = test system: U937 tumor cells or KG-1 tumor cells; assay: Cytotoxicity assay (luciferase) with cytarabine-pulsed tumor cells, 1:1 effector:target; assay type: cell-based; settings: sub-lethal doses, 24 h pulse before T-cells
Experimental: Cytotoxicity assays were established in triplicate at a 1:1 effector:target ratio in 96 well plates containing either U937 tumor cells or KG-1 tumor cells. Where indicated, tumor cells were pulsed for 24 h with the indicated concentrations of cytarabine, prior to addition of γδ T-cells, produced either using the method of the invention (M2) or the method of the comparative example (M1) above. There were three donors for the M2 cells and two donors for the M1 cells. A control group received no cytarabine.
Residual tumor cell viability was measured after overnight co-culture with Vγ9Vδ2 T-cells by luciferase assay.

Vγ9Vδ2 T-cells = assay: Ex-vivo expansion of Vγ9Vδ2 T-cells from PBMC; assay type: cell-based, human
Experimental: To enrich these cells, peripheral blood mononuclear cells (PBMC) were activated with ZA and cultured in AB serum-containing RPMI 1640 medium, supplemented with IL-2/IL-15. Specifically, PBMC isolated from normal (healthy) donors (n=21 separate donors) and from patients with EOC (n=13 separate donors) were cultured with ZA (1 μg/ml day 1 only), IL-2 (100 U/ml) and IL-15 (10 ng/ml). Cytokines and medium were added daily.
Isolated PBMC cells were then reconstituted in GMP TexMACS Media (Miltenyi) at 3×10^6 cell/mL. To the reconstituted cells, 1 μg/mL Zoledronic Acid (Zometa, Novartis) was added as an activator, together with 100 U/mL IL-2 and 5 ng/mL TGF-β. The cells were incubated at 37° C. in air containing 5% carbon dioxide.
On day 3, cells were fed with 100 U/mL IL-2 and 5 ng/mL TGF-β. Thereafter, on days 4, 7, 9, 11, 13, 15, cells were counted by trypan exclusion using a hemocytometer. If the number of T-cells was less than 1×10^6 cells/mL, a further 100 U/mL IL-2 and 5 ng/mL TGF-β were added. If the number of T-cells was between 1×10^6 and 2×10^6 cells/mL, an equivalent volume of TexMACS medium was added together with 100 U/mL IL-2 and 5 ng/mL TGF-β. If the number of T-cells was greater than 2×10^6 […], double the volume of TexMACS media was added together with 100 U/mL IL-2 and 5 ng/mL TGF-β.
After 15 days, the cells were analyzed by flow cytometry with a pan γδ antibody to confirm the enrichment of γδ T-cells in these cultures.
The methodology of Example 1 above was repeated using a different basic medium, specifically RPMI+human AB serum. In particular, PBMC (3×10^6 cells/ml) were cultured in RPMI+10% human AB serum containing zoledronic acid (1 μg/ml)+IL-2 (100 U/ml; method 1) or zoledronic acid (1 μg/ml)+IL-2 (100 U/ml)+TGF-β (5 ng/ml; method 2). The percentage of γδ T-cells present in each culture was evaluated on the day of initiation of the cultures (day 1) and after a further 14 days (day 15) and the results are shown in FIG. 9B.

Nc1ccn([C@@H]2O[C@H](CO)[C@@H](O)[C@@H]2O)c(=O)n1 [cytarabine]
effect of cytarabine on anti-tumor activity of method 2 Vγ9Vδ2 T-cells [1]: potentiated the anti-tumor activity

IL-15: cytokine supplement (10 ng/ml) in comparative expansion
yield of cells on addition of IL-15 (Vγ9Vδ2 T-cells; RPMI 1640 with AB serum, ZA + IL-2, IL-15 10 ng/ml): no significant difference

TGF-β
cell expansion on addition of TGF-β (Vγ9Vδ2 T-cells; RPMI + 10% human AB serum, ZA + IL-2, 5 ng/ml TGF-β, day 15): enhanced cell expansion
yield of Vγ9Vδ2 T-cells on addition of TGF-β (Vγ9Vδ2 T-cells; TexMACS medium, ZA + IL-2, 5 ng/mL TGF-β, 15 days): substantially enhanced yields
